Reference: patent publication US7906486B2, “Method of treating or preventing tissue deterioration, injury or damage due to disease of mucosa” (SciClone Pharmaceuticals, Inc., priority 2007, dated 2011)
Values joined by “and” are separate entries in the source; they are usually repeats but may differ in a detail not shown here. Equal entries are not always repeated.

Legend:
[1] = system: oral mucositis induced by cis-platin 5 mg/kg and radiation 35 Gy (left cheek pouch); test: Oral mucositis induced by a combination of cisplatin and acute radiation in hamsters, mucositis scoring (Example 4, SCI-04); type: in vivo, Syrian Golden Hamsters; set-up: key: 0: Pouch completely healthy. No erythema or vasodilation.; 1: Light to severe erythema and vasodilation. No erosion of mucosa.; 2: Severe erythema and vasodilation. Erosion of superficial aspects of mucosa leaving denuded areas, but no frank ulceration. Decreased stippling of mucosa.; 3: Formation of off-white ulcers in one or more places. Ulcers may have a yellow/gray due to pseudomembrane. Cumulative size of ulcers should equal about ¼ of the pouch. Severe erythema and vasodilation.; 4: Cumulative seize of ulcers should equal about ½ of the pouch. Loss of pliability. Severe erythema and vasodilation.; 5: Virtually all of pouch is ulcerated. Loss of pliability (pouch can only partially be extracted from mouth); details: Group 2 (SCV-07 10 μg/kg, day -1 to day 20), individual animal scores, two scores per animal
Description: (§1) Forty Golden Syrian hamsters were prospectively randomized into four equally sized groups. Mucositis was induced on the left cheek pouch mucosa of golden Syrian hamsters by a single dose of cis-platin at 5 mg/kg given on day −1, and a single dose of radiation administered on day 0 at a dose of 35Gy. Beginning on day −1 and continuing once daily until day 20, SCV-07 was given by sub-cutaneous injection at doses of 10 μg/kg, 100 μg/kg or 1 mg/kg in a volume of 100 μL. Animals' activity and weight were evaluated daily. Beginning on day 6 and continuing on alternate days for the duration of the study, oral mucositis was evaluated using a standard scoring six point scale. The number of days of ulcerative mucositis was evaluated using a Chi-squared test of scores of ≧3 throughout the study, and the individual daily group scores were assessed with a Rank Sum Test.
(§2) The chemo-radiation model of oral mucositis in hamsters, developed by the Principal Investigator, has proven to be an accurate, efficient and cost-effective technique to provide a preliminary evaluation of anti-mucositis compounds. In this model, hamsters received a single dose of cis-platin at 5 mg/kg on day −1, followed by a single dose of radiation of 35 Gy to the left cheek pouch on day 0, rather than the single dose of 40 Gy on day 0 that is used in acute radiation studies. The course of mucositis in this model is very similar to the acute radiation model and results in peak mucositis scores approximately 16-18 days following radiation.
(§3) Hamsters received a single dose of cis-platin at 5 mg/kg on day −1 by intra-peritoneal injection, followed by a single dose of radiation of 35 Gy to the left cheek pouch on day 0. This was accomplished by anesthetizing the animals and everting the left buccal pouch, while protecting the rest of the animal's bodies with a lead shield. Test materials were given by sub-cutaneous injection once daily as detailed in Table 13. Mucositis was evaluated clinically starting on day 6, and continuing on alternate days until day 28. Test articles were given as from day −1 to day 20.
(§4) The grade of mucositis was scored, beginning day 6, and for every second day thereafter, through and including day 28. The effect on mucositis of each drug treatment compared to placebo was assessed according to the following parameters:
(§5) On each evaluation day, the number of animals with a blinded mucositis score of ≧3 in each drug treatment group was compared to the control group. Differences were compared on a cumulative basis and statistical significance was determined by chi-square analysis. Efficacy, in this analysis, is defined by a significant reduction in the number of days that a group of animals had ulcerations (scores 3) when compared to the control group.
(§6) For each evaluation day the scores of the control group were compared to those of the treated groups using non-parametric rank sum analysis. Treatment success was considered as a statistically significant lowering of scores in the treated group on 2 or more days from day 6 to day 28.
(§7) Forty (40) male Syrian Golden Hamsters were given an intraperitoneal injection of 5 mg/kg Cisplatin on day −1. On day 0 all animals were given an acute radiation dose of 35 Gy directed to their left buccal cheek pouch. This was accomplished by anesthetizing the animals and everting the left buccal pouch, while protecting the rest of the animals with a lead shield. Test materials were given by subcutaneous injection once daily as detailed in Table 13. Mucositis was evaluated clinically starting on Day 6, and continued on alternate days until day 28.
(§8) In this study, mucositis was induced with a combination of Cis-platin and radiation. Cis-platin was given as a single injection (IP) of 5 mg/kg on day −1. Radiation was given as a single focal dose of 35 Gy on day 0. Radiation was generated with a Philips 160 kVp (kilovolt potential) (18.75-ma) X-ray source at a focal distance of 30 cm, with a 3.0 mm hardened Al filtration system. […]

[2] = system: oral mucositis induced by cis-platin 5 mg/kg and radiation 35 Gy (left cheek pouch); test: as above; type: in vivo, Syrian Golden Hamsters; set-up: key: 0: Pouch completely healthy. No erythema or vasodilation.; 1: Light to severe erythema and vasodilation. No erosion of mucosa.; 2: Severe erythema and vasodilation. Erosion of superficial aspects of mucosa leaving denuded areas. Decreased stippling of mucosa.; 3: Formation of off-white ulcers in one or more places. Ulcers may have a yellow/gray due to pseudomembrane. Cumulative size of ulcers should equal about ¼ of the pouch. Severe erythema and vasodilation.; 4: Cumulative seize of ulcers should equal about ½ of the pouch. Loss of pliability. Severe erythema and vasodilation.; 5: Virtually all of pouch is ulcerated. Loss of pliability (pouch can only partially be extracted from mouth); details: Group 2 (SCV-07 10 μg/kg, day -1 to day 20), individual animal scores, two scores per animal
Description: as §1, §2, §3, §4, §5, §6, §7, §8

N[C@H](CCC(=O)N[C@@H](Cc1c[nH]c2ccccc12)C(=O)O)C(=O)O [SCV-07, γ-D-glutamyl-L-tryptophan]
Mucositis score, day 10 ([1]; day 10): 2
Mucositis score, day 12 ([1]; day 12): 2
Mucositis score, day 14 ([1]; day 14): 2
Mucositis score, day 16 ([1]; day 16): 2
Mucositis score, day 18 ([1]; day 18): 2
Mucositis score, day 20 ([1]; day 20): 2
Mucositis score, day 22 ([1]; day 22): 2
Mucositis score, day 24 ([1]; day 24): 2
Mucositis score, day 26 ([1]; day 26): 2
Mucositis score, day 28 ([1]; day 28): 2
Mucositis score, day 10 ([2]; day 10): 1
Mucositis score, day 12 ([2]; day 12): 3
Mucositis score, day 14 ([2]; day 14): 3
Mucositis score, day 16 ([2]; day 16): 3 (14×) and 4 (2×)
Mucositis score, day 18 ([2]; day 18): 3 (12×) and 4 (2×)
Mucositis score, day 20 ([2]; day 20): 3 (12×) and 1
Mucositis score, day 22 ([2]; day 22): 1 (4×) and 3 (8×)
Mucositis score, day 24 ([2]; day 24): 1 (5×) and 3 (4×)
Mucositis score, day 26 ([2]; day 26): 1 (11×) and 3 (4×)
Mucositis score, day 28 ([2]; day 28): 0 (7×) and 1 (8×) and 3 (2×)
